Source: patent US20030074682A1, “Isolation, characterization, and use of a novel teleost potassium channel” (priority 2001, published 2003)
Like-named read-outs stand apart in the source and are kept apart here.

Tests used:
zebrafish larvae = details: for "real" arrhythmia (atrium and ventricle beating very irregularly): bathing 6 hours; for induction of 2:1 atrioventricular block (atrium beats twice while the ventricle beats once): wild-type larvae bathed in drug, terfenadine 10 μM, astemizol 1 μM, diphenhydramine 100 μM, haloperidol 2 μM, droperidol 50 μM, thioridazin 10 μM, pimozide 0.5 μM, cisapride 5 μM; for arrest of the atrial and ventricular beat: 1 hour incubation
Description: About 50 zebrafish larvae were incubated for 2-7 d at 22-28° C. in petri dishes filled with 30 ml embryo medium.
At the day of the experiment 10 larvae were transferred to small petri dishes filled with 10 ml embryo medium, 0.5 ml MESAB solution (0.2% ethyl-m-aminobenzoate methane-sulfonate+1% Na2HPO4×2H2O, pH 7.2) and 10 μl of the respective drug (or +10 μl of a second drug) added from a 1000-fold stock solution prepared with DMSO, these three components were previously mixed in 50 ml plastic tubes (controls only receive 10 or 20 μl DMSO).
At certain time points the contractility of the heart and blood flow was monitored, and the heart rate was determined by counting the heart beat with the aid of a stereo-microscope.
In order to evaluate if zebrafish is a suitable model organism to study drug-induced QT-prolongation we investigated the effect of known QT-prolonging medicaments on the heart beat rate of zebrafish larvae. Compounds were added to the media in which the larvae were bathed and the heart beat rate was recorded by microscopy.

[1] = biological target: rapidly activating delayed rectifier current K^+ current IKr (Homo sapiens, UniProt Q12809); details: cited from earlier work
ZERG = assay: Antisense ZERG-knockdown: PMO injected into yolk of zebrafish embryos at the 1-4-cell stage, heart function and morphology scored; assay type: in vivo
Source text: In one embodiment, preferred PMOs comprise a sequence complementary to contiguous nucleotides within nucleotides 1-150 of SEQ ID NO:1; an exemplary PMO sequence is presented in SEQ ID NO:3. As further detailed in the Examples, we generated an antisense PMO corresponding to the first 24 nucleotides of the ZERG coding sequence, as presented in SEQ ID NO:3, and injected these into the yolk of zebrafish embryos at the 1-4 cell stage, according to standard protocols. […] Thus, antisense PMOs may be used to knockdown the ZERG protein, and to phenocopy the breakdance mutant, as well as QT-prolonging drug-treated larvae.
24-mer antisense PMOs targeting the 5′ prime region of ZERG (SEQ ID NO:3; start 0-24: GACATGTCCGCGGCGCACGGGCAT) were injected at the 1-4-cell stage into the yolk of zebrafish embryos according to published methods (Nasevicius and Ekker, 2000). The PMO was obtained from AVI Biopharma (Corvallis, Oreg.) and was injected at 3, 6 and 9 ng per embryo, we used 50 embroys per concentration. The experiment was repeated five times. Heart function and morphological anaylsis of larvae were scored one to 5 d later. Controls included the injection of only the injection buffer.

[2] = cardiac myocytes, electrophysiology
[3] = 6 ng PMO per embryo, 2 days post-fertilization

Sequence of rapidly activating delayed rectifier current K^+ current IKr (Q12809 whole entry): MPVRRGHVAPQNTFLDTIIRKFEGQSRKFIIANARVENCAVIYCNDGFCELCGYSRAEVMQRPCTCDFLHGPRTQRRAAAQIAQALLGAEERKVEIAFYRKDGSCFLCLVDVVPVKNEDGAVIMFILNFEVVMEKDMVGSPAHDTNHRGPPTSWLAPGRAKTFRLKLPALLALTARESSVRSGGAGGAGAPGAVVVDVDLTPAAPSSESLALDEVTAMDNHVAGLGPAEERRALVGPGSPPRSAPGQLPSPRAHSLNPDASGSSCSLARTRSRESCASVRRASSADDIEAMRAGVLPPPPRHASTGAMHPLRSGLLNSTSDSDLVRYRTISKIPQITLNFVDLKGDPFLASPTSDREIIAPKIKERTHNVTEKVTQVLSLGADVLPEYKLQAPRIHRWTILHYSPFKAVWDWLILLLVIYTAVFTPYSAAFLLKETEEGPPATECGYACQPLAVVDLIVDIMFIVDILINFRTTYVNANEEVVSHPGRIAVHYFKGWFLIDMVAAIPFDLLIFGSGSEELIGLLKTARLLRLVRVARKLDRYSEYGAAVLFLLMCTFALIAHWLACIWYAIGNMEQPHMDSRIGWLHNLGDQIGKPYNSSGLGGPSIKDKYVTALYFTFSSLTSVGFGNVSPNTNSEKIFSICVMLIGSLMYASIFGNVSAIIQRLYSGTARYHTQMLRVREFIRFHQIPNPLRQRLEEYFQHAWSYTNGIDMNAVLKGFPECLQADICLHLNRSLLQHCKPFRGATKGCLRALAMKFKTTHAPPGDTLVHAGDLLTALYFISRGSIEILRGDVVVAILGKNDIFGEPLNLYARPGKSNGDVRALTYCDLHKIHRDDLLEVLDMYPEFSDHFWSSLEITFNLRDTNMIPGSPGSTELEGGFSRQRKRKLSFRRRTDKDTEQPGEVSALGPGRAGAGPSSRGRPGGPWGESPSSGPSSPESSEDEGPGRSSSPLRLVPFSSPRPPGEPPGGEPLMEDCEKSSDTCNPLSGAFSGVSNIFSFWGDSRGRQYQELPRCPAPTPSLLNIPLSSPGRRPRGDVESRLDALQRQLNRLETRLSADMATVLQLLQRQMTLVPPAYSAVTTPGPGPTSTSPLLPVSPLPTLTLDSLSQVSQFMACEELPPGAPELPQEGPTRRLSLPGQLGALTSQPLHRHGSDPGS

Compound: COc1ccc(CCN2CCC(Nc3nc4ccccc4n3Cc3ccc(F)cc3)CC2)cc1 [astemizole]
- incubation time until 2:1 heart beat occurred (zebrafish larvae; 100 nM): 6 h
- "real" arrhythmia (atrium and ventricle beating very irregularly) (zebrafish larvae; 200 nM): arrhythmia occurred
- induction of 2:1 atrioventricular block (atrium beats twice while the ventricle beats once) (zebrafish larvae): induced a 2:1 atrioventricular block

Compound: COc1cc(N)c(Cl)cc1C(=O)NC1CCN(CCCOc2ccc(F)cc2)CC1OC (stereo not shown) [cisapride]
- "real" arrhythmia (atrium and ventricle beating very irregularly) (zebrafish larvae; 10 μM): arrhythmia occurred
- arrest of the atrial and ventricular beat (zebrafish larvae; 25 μM): arrest of the atrial and ventricular beat
- induction of 2:1 atrioventricular block (atrium beats twice while the ventricle beats once) (zebrafish larvae): induced a 2:1 atrioventricular block
- block of IKr [1, 2]: block

Compound: CN(C)CCOC(c1ccccc1)c1ccccc1 [diphenhydramine]
- induction of 2:1 atrioventricular block (atrium beats twice while the ventricle beats once) (zebrafish larvae): induced a 2:1 atrioventricular block

Compound: O=C(CCCN1CC=C(n2c(=O)[nH]c3ccccc32)CC1)c1ccc(F)cc1 [droperidol]
- induction of 2:1 atrioventricular block (atrium beats twice while the ventricle beats once) (zebrafish larvae): induced a 2:1 atrioventricular block

Compound: NC1=NCC2c3ccccc3Cc3ccccc3N12 (stereo not shown) [epinastine]
- effect on heart beat rate (zebrafish larvae; up to 250 μM): did not affect heart beat rate

Compound: O=C(CCCN1CCC(O)(c2ccc(Cl)cc2)CC1)c1ccc(F)cc1 [haloperidol]
- "real" arrhythmia (atrium and ventricle beating very irregularly) (zebrafish larvae; 10 μM): arrhythmia occurred
- induction of 2:1 atrioventricular block (atrium beats twice while the ventricle beats once) (zebrafish larvae): induced a 2:1 atrioventricular block
- block of IKr [1]: block

Compound: O=c1[nH]c2ccccc2n1C1CCN(CCCC(c2ccc(F)cc2)c2ccc(F)cc2)CC1 [pimozide]
- incubation time until 2:1 heart beat occurred (zebrafish larvae; 200 nM): 3 h
- arrest of the atrial and ventricular beat (zebrafish larvae; 10 μM): arrest of the atrial and ventricular beat
- induction of 2:1 atrioventricular block (atrium beats twice while the ventricle beats once) (zebrafish larvae): induced a 2:1 atrioventricular block
- block of IKr [1]: block

Compound: CC(C)NCC(O)c1ccc(NS(C)(=O)=O)cc1 (stereo not shown) [sotalol]
- block of IKr [1, 2]: block

Compound: CC(C)(C)c1ccc(C(O)CCCN2CCC(C(O)(c3ccccc3)c3ccccc3)CC2)cc1 (stereo not shown) [terfenadine]
- induction of 2:1 atrioventricular block (atrium beats twice while the ventricle beats once) (zebrafish larvae): induced a 2:1 atrioventricular block

Compound: CSc1ccc2c(c1)N(CCC1CCCCN1C)c1ccccc1S2 (stereo not shown) [thioridazine]
- "real" arrhythmia (atrium and ventricle beating very irregularly) (zebrafish larvae; 10 μM): arrhythmia occurred
- induction of 2:1 atrioventricular block (atrium beats twice while the ventricle beats once) (zebrafish larvae): induced a 2:1 atrioventricular block

Compound: PMO: 24-mer antisense PMO targeting the 5′ region of ZERG (SEQ ID NO:3): GACATGTCCGCGGCGCACGGGCAT (antisense GACATGTCCGCGGCGCACGGGCAT; all phosphorodiamidate morpholino (PMO))
- larvae appearing wild-type (ZERG; 3 ng PMO per embryo): approximately 5%
- larvae showing a slight bradycardia (ZERG; 3 ng PMO per embryo): approximately 81%
- larvae showing the 2:1 phenotype (ZERG; 3 ng PMO per embryo): approximately 18%
- bradycardia and other visible abnormalities (ZERG; 6 ng PMO per embryo): All larvae showed a slight bradycardia and no other visible abnormalities
- embryos showing irregular arrhythmia, atrial beat rate strongly reduced and uncoordinated (ZERG; [3]): 28%
- embryos showing the 2:1 heart beat (ZERG; [3]): 67%
- larvae with a 2:1 heart beat (ZERG; 6 ng PMO per embryo, day 3): 10%
- phenotype compared with wildtype (ZERG; 6 ng PMO per embryo, day 5): all larvae were indistinguishable from wildtype larvae
- day of death after strong necrosis beginning with day 4 (ZERG; 9 ng PMO per embryo): ~6 days
- heart morphology (ZERG; 9 ng PMO per embryo): changed to a pattern known for dilative cardiomyopathy
- larvae with strongly reduced heart beat rate and contractility, both chambers beating 1:1, circulation strongly reduced or absent (ZERG; 9 ng PMO per embryo): 90%
- edema and blood accumulation (ZERG; 9 ng PMO per embryo, day 2): heart edema and blood accumulated on the yolk sac
- PMO-injected larvae displaying the 2:1 phenotype (ZERG; injected into yolk at the 1-4 cell stage, dose not given): About 90%
